# Publication PMC2905291, “A phase I study of the safety and pharmacokinetics of the histone deacetylase inhibitor belinostat administered in combination with carboplatin and/or paclitaxel in patients with solid tumours” (British Journal of Cancer, 2010)
# Where two headings read alike, the source gives them in different places.
# Assays:
# [1] = Carboplatin (platinum by ICP-MS) plasma pharmacokinetics in patients after belinostat and paclitaxel; type: in vivo, human; conditions: for AUCall / AUCinf / Cl / Cmax / T1/2 / Vss: mean±s.d.
# Protocol: (§1) Blood samples for belinostat PK, when administered alone were taken pre-treatment, at the end of infusion and 5 min, 15, 30 min, 1 h, 2, 3 h, 3 h 15 min, 3 h 30 min, 4, 5, 6 h after infusion on days 1 and 3 of cycle 1. Samples for carboplatin or paclitaxel when administered after belinostat, were taken relative to the start of belinostat infusion at 3 h (pre-carboplatin or-paclitaxel), 3 h 15 min, 3 h 30 min, 4, 5 and 6 h in cycle 1 on day 3. In addition, samples were taken for BelCaP when administered together at 6 h 15 min, 6 h 30 min, 7, 8, 9 and 24 h after belinostat on day 3. Belinostat and paclitaxel levels were determined in lithium-heparinised plasma using validated solid-phase extraction high performance liquid chromatograpgy (HPLC)-tandem mass spectrometric detection (MS/MS) methods (Covance, Indianapolis, IN, USA). The lower limit of quantitation was 5 and 10 ng ml^−1 for belinostat and paclitaxel, respectively. Belinostat plasma concentrations were determined at Covance using a validated method involving solid-phase extraction, separation with acetic acid acetonitril gradient on reversed phase C18 silica and MS/MS using penta-deuterated belinostat as the internal standard. Belinostat and the internal standard were detected using negative ion electron spray with the transition from 317 to 143 and 322 to 143 m z^−1, respectively.
# Human plasma samples were analysed for Pt from carboplatin by inductively coupled plasma-mass spectrometry after dilution with 0.01% Triton X-100 in 0.1% nitric acid. The samples were analysed without pre-digestion or extraction directly against matrix-matched standard solutions. Intensity, as counts per second from Pt, mass 195, was measured. Terbium, mass 159, was used as an internal standard. The results were calculated from the net intensity ratio of Pt to internal standard. The standard curve range was 2.00–1000 ng Pt ml^−1 in plasma. Samples above the calibration range were diluted using blank human plasma.
# (§2) Plasma concentration–time curves of all three analytes were analysed by non-compartmental methods using WinNonlin (version 4.0.1 Pharsight Corp., Cary, NC, USA). For all analytes the AUC was estimated from the start of infusion by the logarithmic-linear trapezoidal rule and extrapolated to infinity using the estimated value of the slope of the terminal logarithmic-linear disposition phase. Analysis was carried out on the non-dose-normalised plasma concentration of carboplatin, as dosing had already been normalised per GFR using Calvert's formula ([Calvert et al, 1989]).
# [2] = Paclitaxel plasma pharmacokinetics in patients after belinostat (LC-MS/MS, non-compartmental); type: in vivo, human
# Protocol: as §1
# Paclitaxel and the internal standard, cephalomannine, are extracted from human plasma by solid-phase extraction on a cyanopropyl solid-phase extraction cartridge. After eluting with the mobile phase, the eluent is directly analysed using liquid chromatography with MS/MS. The standard curve range for this assay is from 10.0 to 2000 ng ml^−1 for paclitaxel, using a plasma sample volume of 0.250 ml.
# as §2
# [3] = test system: patients with solid tumours; conditions: ref Munster et al, cited from earlier work; for patients who responded: valproic acid with epirubicin, 2009
# [4] = test system: patients with advanced solid malignancies; design: method as in Ramalingam et al, 2007a; conditions: ref Ramalingam et al, 2007a, cited from earlier work
# [5] = carboplatin equivalents from total platinum, target AUC 5 i.v. day 3 after belinostat 600 mg m^−2 and paclitaxel, 7 patients
# [6] = carboplatin equivalents from total platinum, target AUC 5 i.v. day 3 after belinostat 800 mg m^−2 and paclitaxel, 3 patients
# [7] = carboplatin equivalents from total platinum, target AUC 5 i.v. day 3 after belinostat 1000 mg m^−2 and paclitaxel, 7 patients
# [8] = carboplatin equivalents, target AUC 5 i.v. day 3, Total Mean over all belinostat dose levels
# [9] = human, plasma, iv, paclitaxel 175 mg m^−2 i.v. day 3 after belinostat 600 mg m^−2, 6 patients, mean±s.d.
# [10] = human, plasma, iv, paclitaxel 175 mg m^−2 i.v. day 3 after belinostat 800 mg m^−2, 3 patients, mean±s.d.
# [11] = human, plasma, iv, paclitaxel 175 mg m^−2 i.v. day 3 after belinostat 1000 mg m^−2, 7 patients, mean±s.d.
# [12] = paclitaxel 175 mg m^−2 i.v. day 3 after belinostat 600 mg m^−2, 6 patients, mean±s.d.
# [13] = paclitaxel 175 mg m^−2 i.v. day 3 after belinostat 800 mg m^−2, 3 patients, mean±s.d.
# [14] = paclitaxel 175 mg m^−2 i.v. day 3 after belinostat 1000 mg m^−2, 7 patients, mean±s.d.
# [15] = valproic acid combined with epirubicin, 2007
# [16] = vorinostat with carboplatin and paclitaxel, 25 patients treated
structure (smiles),measurement,setting,value
N.N.O=C([O-])C1(C(=O)[O-])CCC1.[Pt+2] [carboplatin],effect of concurrent administration on pharmacokinetics,[1]; carboplatin after belinostat,unaltered
same,AUCall,[1]; [5],7.8 ± 1.4 mg·min/mL
same,AUCinf,[1]; [5],8.8 ± 1.3 mg·min/mL
same,Cl,[1]; [5],4.4 ± 0.9 L/h
same,Cmax,[1]; [5],27400 ± 4000 ng/mL
same,T1/2,[1]; [5],7.8 ± 2.7 h
same,Vss,[1]; [5],34.3 ± 16.1 L
same,AUCall,[1]; [6],8.9 ± 2.1 mg·min/mL
same,AUCinf,[1]; [6],9.7 ± 1.9 mg·min/mL
same,Cl,[1]; [6],4.1 ± 0.5 L/h
same,Cmax,[1]; [6],32800 ± 11700 ng/mL
same,T1/2,[1]; [6],5.4 ± 1.0 h
same,Vss,[1]; [6],21.9 ± 7.6 L
same,AUCall,[1]; [7],8.4 ± 1.0 mg·min/mL
same,AUCinf,[1]; [7],9.3 ± 1.1 mg·min/mL
same,Cl,[1]; [7],3.5 ± 0.8 L/h
same,Cmax,[1]; [7],29600 ± 14000 ng/mL
same,T1/2,[1]; [7],6.0 ± 0.8 h
same,Vss,[1]; [7],20.4 ± 3.5 L
same,AUCall,[1]; [8],8.2 ± 1.4 mg·min/mL
same,AUCinf,[1]; [8],9.2 ± 1.3 mg·min/mL
same,Cl,[1]; [8],3.9 ± 0.8 L/h
same,Cmax,[1]; [8],29200 ± 1000 ng/mL
same,T1/2,[1]; [8],6.6 ± 2.1 h
same,Vss,[1]; [8],26.4 ± 12.5 L
CC(=O)O[C@H]1C(=O)[C@@]2(C)[C@H]([C@H](OC(=O)c3ccccc3)[C@]3(O)C[C@H](OC(=O)[C@H](O)[C@@H](NC(=O)c4ccccc4)c4ccccc4)C(C)=C1C3(C)C)[C@]1(OC(C)=O)CO[C@@H]1C[C@@H]2O [paclitaxel],AUC,[2]; [9],14 ± 2.5 µM·h
same,AUC(0-inf),[2]; [9],14.7 ± 2.6 µM·h
same,Cmax,[2]; [9],3.9 ± 0.7 µM
same,half-life,[2]; [9],5.7 ± 0.5 h
same,AUC,[2]; [10],12.8 ± 1.7 µM·h
same,AUC(0-inf),[2]; [10],13.3 ± 2 µM·h
same,half-life,[2]; [10],5.5 ± 1.1 h
same,AUC,[2]; [11],14.4 ± 3.8 µM·h
same,AUC(0-inf),[2]; [11],15 ± 4 µM·h
same,half-life,[2]; [11],5.5 ± 0.6 h
same,Cl,[2]; [12],14.3±2.2 l h^−1 m^−2
same,Vss,[2]; [12],56.6±21.2 l m^−2
same,Cl,[2]; [13],15.7±2.6 l h^−1 m^−2
same,Vss,[2]; [13],53.0±3.0 l m^−2
same,Cl,[2]; [14],14.8±4.9 l h^−1 m^−2
same,Vss,[2]; [14],57.2±31.7 l m^−2
same,effect of concurrent administration on pharmacokinetics,[2]; paclitaxel after belinostat,unaltered
CCCC(CCC)C(=O)O [valproic acid],dose-limiting toxicities,[3]; [15],neurological DLTs
same,"grade II–III QTc prolongation, patients",[3]; [15],approximately 25%
same,patients who responded,[3]; of 41 patients with a variety of solid tumours,9
same,patients who responded,"[3]; phase II portion, breast cancer",64%
O=C(CCCCCCC(=O)Nc1ccccc1)NO [vorinostat],"grade III/IV neutropenia, patients",[4]; vorinostat with carboplatin and paclitaxel at higher dose than present study,50%
same,"patients with PR, head and neck cancer",[4]; [16],1
same,"patients with PR, non-small-cell lung cancer",[4]; [16],10
